# Measurements taken from patent US10111874B2, “Combination therapies for treatment of cancer” (Araxes Pharma LLC, priority 2014, dated 2018).
# Molecular target: T1, KRAS G12C 1-169, his-tagged protein, GDP-loaded (Homo sapiens, UniProt P01116, G12C)
# T1 construct: KRAS G12C 1-169, his-tagged protein, GDP-loaded
# Test: Biochemical assay: covalent binding to KRAS G12C analyzed by mass spectrometry; note: test concentration or dose not given here
# Details: compounds 1-47, measured at 24 h
# T1 sequence (P01116 1-169 isoform P01116-2 G12C): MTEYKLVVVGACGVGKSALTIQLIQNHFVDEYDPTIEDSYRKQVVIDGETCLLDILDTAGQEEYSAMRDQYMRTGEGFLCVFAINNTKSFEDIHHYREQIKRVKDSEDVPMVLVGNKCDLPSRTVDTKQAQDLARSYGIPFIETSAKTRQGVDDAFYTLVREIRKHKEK
row,Structure (SMILES),Binding %
1,"C=CC(=O)N1CCN(c2ncnc3cc(Cl)c(-c4ccc(Cl)c(Cl)c4)cc23)CC1 [Compound I-7, 1-(4-(7-chloro-6-(3,4-dichlorophenyl)quinazolin-4-yl)piperazin-1-yl)prop-2-en-1-one]",++++ (++++indicates binding activity greater than 75%)
2,"C=CC(=O)N1CCN(c2ncnc3cc(Cl)c(-c4ccncc4)cc23)CC1 [Compound I-17, 1-(4-(7-chloto-6-(pyridin-4-yl)quinazolin-4-yl)piperazin-1-yl)prop-2-en-1-one]",+ (+indicates binding activity from 5% to 25%)
3,"C=CC(=O)N1CCC(Nc2n[nH]c3cc(Cl)c(-c4ccccc4Cl)cc23)CC1 [Compound I-31, 1-(4-(6-chloro-5-(2-chlorophenyl)-1H-indazol-3-ylamino)piperidin-1-yl)prop-2-en-1-one]",+ (+indicates binding activity from 5% to 25%)
4,"C=CC(=O)NC1CN(C2CN(C(=O)CNc3cc(Cl)c(Cl)cc3O)C2)C1 [Example 39, N-(1′-(2-(4,5-dichloro-2-hydroxyphenylamino)acetyl)-1,3′-biazetidin-3-yl)acrylamide]",+ (+indicates binding activity from 5% to 25%)
5,"C=CC(=O)N1CCN(c2ncnc3cc(Cl)c(-c4ccc(Cl)cc4)cc23)CC1 [Compound I-4, 1-(4-(7-chloro-6-(4-chlorophenyl)quinazolin-4-yl)piperazin-1-yl)prop-2-en-1-one]",++++ (++++indicates binding activity greater than 75%)

# Same assay, conditions: compounds 48-246, measured at 2 h
row,Structure (SMILES),Binding %
1,"C=CC(=O)N1CCN(c2ncnc3cc(-c4ccccc4C4(C#N)CC4)c(Cl)cc23)CC1 [Compound I-175, 1-(2-(4-(4-acryloylpiperazin-1-yl)-6-chloroquinazolin-7-yl)phenyl)cyclopropanecarbonitrile]",+++ (+++indicates binding activity greater than 50% and up to 75%)
2,"C=CC(=O)N1CCN(c2ncnc3cc(Cl)c(-c4ccc(Cl)cc4)cc23)C[C@H]1C#N [Compound I-59, (S)-1-acryloyl-4-(7-chloro-6-(4-chlorophenyl)quinazolin-4-yl)piperazine-2-carbonitrile]",++++ (++++indicates binding activity greater than 75%)
3,"C=CC(=O)N1CCN(c2ncnc3cc(-c4ccccc4)c(C4CC4)cc23)CC1 [Compound I-86, 1-(4-(6-cyclopropyl-7-phenylquinazolin-4-yl)piperazin-1-yl)prop-2-en-1-one]",+ (+indicates binding activity from 5% to 25%)
4,"CN(C)C/C=C/C(=O)N1CCN(c2ncnc3cc(Cl)c(-c4ccc(Cl)cc4)cc23)CC1C#N (centres unmarked) [Compound I-66, (E)-4-(7-Chloro-6-(4-chlorophenyl)quinazolin-4-yl)-1-(4-(dimethylamino)but-2-enoyl)piperazine-2-carbonitrile]",++++ (++++indicates binding activity greater than 75%)
5,"C=CC(=O)N1CCN(c2ncnc3cc(Cl)c(-c4ccc(Cl)cc4)cc23)CC1CN(C)C (centres unmarked) [Compound I-60, 1-(4-(7-chloro-6-(4-chlorophenyl)quinazolin-4-yl)-2-((dimethylamino)methyl)piperazin-1-yl)prop-2-en-1-one]",+ (+indicates binding activity from 5% to 25%)
6,"C=CC(=O)N1CCN(c2ncnc3cc(-c4c(OC)ccc5ccccc45)c(Cl)cc23)CC1 [Compound I-202, 1-(4-(6-chloro-7-(2-methoxynaphthalen-1-yl)quinazolin-4-yl)piperazin-1-yl)prop-2-en-1-one]",+++ (+++indicates binding activity greater than 50% and up to 75%)
7,"C=CC(=O)N1CCN(c2ncnc3cc(-c4ccccc4Cl)c(Cl)cc23)CC1CC#N (centres unmarked) [Compound I-109, 2-(1-acryloyl-4-(6-chloro-7-(2-chlorophenyl)quinazolin-4-yl)piperazin-2-yl)acetonitrile]",++++ (++++indicates binding activity greater than 75%)
8,"C=CC(=O)N1CCN(c2ncnc3cc(-c4cc(O)ccc4Cl)c(Cl)cc23)CC1 [Compound I-128, 1-(4-(6-chloro-7-(2-chloro-5-hydroxyphenyl)quinazolin-4-yl)piperazin-1-yl)prop-2-en-1-one]",+++ (+++indicates binding activity greater than 50% and up to 75%)
9,"C=CC(=O)N1CCN(c2ncnc3c(F)c(-c4ccc(F)cc4F)c(Cl)cc23)CC1 [Compound I-224, 1-(4-(6-chloro-7-(2,4-difluorophenyl)-8-fluoroquinazolin-4-yl)piperazin-1-yl)prop-2-en-1-one]",+++ (+++indicates binding activity greater than 50% and up to 75%)
10,"C=CC(=O)N1CCN(c2ncnc3c(F)c(-c4c(C)ccc5[nH]ncc45)c(Cl)cc23)CC1 [Compound I-234, 1-(4-(6-chloro-8-fluoro-7-(5-methyl-1H-indazol-4-yl)quinazolin-4-yl)piperazin-1-yl)prop-2-en-1-one]",++++ (++++indicates binding activity greater than 75%)
11,"C=CC(=O)N1CCN(c2ncnc3cc(-c4ccccc4C(F)(F)F)c(Cl)cc23)CC1 [Compound I-100, 1-(4-(6-chloro-7-(2-(trifluoromethyl)phenyl)quinazolin-4-yl)piperazin-1-yl)prop-2-en-1-one]",+++ (+++indicates binding activity greater than 50% and up to 75%)
12,"CCOC(=O)/C=C/C(=O)N1CCN(c2ncnc3cc(-c4ccc(F)cc4F)c(Cl)cc23)CC1 [Compound I-239, (E)-ethyl 4-(4-(6-chloro-7-(2,4-difluorophenyl)quinazolin-4-yl)piperazin-1-yl)-4-oxobut-2-enoate]",+++ (+++indicates binding activity greater than 50% and up to 75%)
13,"C=CC(=O)NC1CCN(c2ncnc3cc(-c4ccccc4)c(Cl)cc23)CC1 [Compound I-89, N-(1-(6-chloro-7-phenylquinazolin-4-yl)piperidin-4-yl)acrylamide]",+ (+indicates binding activity from 5% to 25%)
14,"C=CC(=O)N1CCN(c2ncnc3cc(-n4ccc(Cl)cc4=O)c(Cl)cc23)CC1 [Compound I-181, 1-(4-(4-acryloylpiperazin-1-yl)-6-chloroquinazolin-7-yl)-4-chloropyridin-2(1H)-one]",+ (+indicates binding activity from 5% to 25%)
15,"C=CC(=O)N1CCN(c2ncnc3c(F)c(-c4ccccc4C(F)(F)F)c(Cl)cc23)CC1 [Compound I-209, 1-(4-(6-chloro-8-fluoro-7-(2-(trifluoromethyl)phenyl)quinazolin-4-yl)piperazin-1-yl)prop-2-en-1-one]",++++ (++++indicates binding activity greater than 75%)

# Same assay, conditions: compounds 247-342, measured at 30 min
row,Structure (SMILES),Binding %
1,"C=CC(=O)N1CCN(c2ncnc3c(F)c(-c4c(O)cccc4F)c(F)cc23)CC1 [Compound 299, 1-(4-(6,8-difluoro-7-(2-fluoro-6-hydroxyphenyl)quinazolin-4-yl)piperazin-1-yl)prop-2-en-1-one]",+ (+indicates binding activity from 5% to 25%)
2,"C=CC(=O)N1CCN(c2ncnc3c(F)c(-c4c(F)ccc5[nH]ncc45)c(Cl)cc23)CC1 [Compound 331, 1-(4-(6-chloro-8-fluoro-7-(5-fluoro-1H-indazol-4-yl)quinazolin-4-yl)piperazin-1-yl)prop-2-en-1-one]",++ (++indicates binding activity greater than 25% and up to 50%)
3,"C=CC(=O)N1CCN(c2nc(OCCN(C)C)nc3cc(-c4c(C)ccc5[nH]ncc45)c(Cl)cc23)CC1 [Compound 314, 1-(4-(6-chloro-2-(2-(dimethylamino)ethoxy)-7-(5-methyl-1H-indazol-4-yl)quinazolin-4-yl)piperazin-1-yl)prop-2-en-1-one]",++++ (++++indicates binding activity greater than 75%)

# Same assay, conditions: determined at 2 hrs
row,Structure (SMILES),Binding %
1,"C=CC(=O)N1CC(N2CCN(C(=O)CNc3cc(C4CC4)c(Cl)cc3O)CC2C)C1 (centres unmarked) [II-60, 1-(3-(4-(2-((4-Chloro-5-cyclopropyl-2-hydroxyphenyl)amino)acetyl)-2-methylpiperazin-1-yl)azetidin-1-yl)prop-2-en-1-one]",++ (++indicates binding activity greater than 20%)
2,"C=CC(=O)N1CC(N2CCN(C(=O)Cc3c[nH]c4cc(Cl)c(Cl)cc34)CC2)C1 [II-61, 1-(3-(4-(2-(5,6-Dichloro-1H-indol-3-yl)acetyl)piperazin-1-yl)azetidin-1-yl)prop-2-en-1-one]",+ (+indicates binding activity from 5% to 20%)

# Same assay, conditions: determined at 24 hrs
row,Structure (SMILES),Binding %
1,"C=CC(=O)N1CC(N2CCN(C(=O)CNc3cc(Cl)c(Cl)cc3O)CC2)C1 [II-1, 1-(3-(4-(2-(4,5-dichloro-2-hydroxyphenyl-amino)acetyl)-piperazin-1-yl)azetidin-1-yl)prop-2-en-1-one]",++++ (++++indicates binding activity greater than 50%)
2,"C=CC(=O)N1CC(N2CCC(C(=O)NCc3cc(Cl)c(Cl)cc3O)CC2)C1 [II-17, 1-(1-acryloylazetidin-3-yl)-N-(4,5-dichloro-2-hydroxybenzyl)piperidine-4-carboxamide]",++ (++indicates binding activity greater than 15% and up to 25%)
3,"C=CC(=O)N1CC(N2CCN(C(=O)CNc3cc(C(F)(F)F)c(Cl)cc3OC)CC2)C1 [II-37, 1-(3-(4-(2-(4-chloro-2-methoxy-5-(trifluoromethyl)-phenylamino)acetyl)-piperazin-1-yl)azetidin-1-yl)prop-2-en-1-one]",++ (++indicates binding activity greater than 15% and up to 25%)
4,"C=CC(=O)N1CC(N2CCN(C(=O)CNc3cc(Cl)c(F)cc3O)CC2)C1 [II-14, 1-(3-(4-(2-(5-chloro-4-fluoro-2-hydroxyphenyl-amino)acetyl)piperazin-1-yl)azetidin-1-yl)prop-2-en-1-one]",+++ (+++indicates binding activity greater than 25% and up to 50%)
5,"C=CC(=O)N1CC(N2CCN(C(=O)c3cc(C4CC4)c(Cl)cc3OC)CC2)C1 [II-47, 1-(3-(4-(4-chloro-5-cyclopropyl-2-methoxybenzoyl)-piperazin-1-yl)azetidin-1-yl)prop-2-en-1-one]",+ (+indicates binding activity from 5% to 15%)
6,"C=CC(=O)N1CC(N2CCN(C(=O)Cc3cccc4ccccc34)CC2)C1 [II-24, 1-(3-(4-(2-(naphthalen-1-yl)acetyl)piperazin-1-yl)azetidin-1-yl)prop-2-en-1-one]",+ (+indicates binding activity from 5% to 15%)
7,"C=CC(=O)N1CC(N2CCN(C(=O)CCc3cc(Cl)c(Cl)cc3O)CC2)C1 [II-6, 1-(3-(4-(3-(4,5-dichloro-2-hydroxyphenyl)-propanoyl)piperazin-1-yl)azetidin-1-yl)prop-2-en-1-one]",+ (+indicates binding activity from 5% to 15%)
